{"source": "patent US20230043407A1", "about": "“ELECTROSTATICALLY GATED NANOFLUIDIC MEMBRANES FOR CONTROL OF MOLECULAR TRANSPORT” (THE METHODIST HOSPITAL SYSTEM, priority 2020, published 2023)", "test": "In vitro release rate modulation across electrostatically gated nanofluidic membrane", "settings": "active phases, gate voltage −1.5 V, vs passive phases (0 V); sink 0.01×PBS", "experimental": "Release modulation experiments were performed with a custom made, two reservoirs fixture comprising of a macro cuvette (sink reservoir) and a drug reservoir. The cuvette was glued with UV epoxy (OG116, Epoxy Technologies, Inc.) to a PMMA (McMaster Carr, Douglasville, Ga.) membrane holder. The drug reservoir (500 μL capacity), made of PMMA, was secured to the membrane holder through 2 SS316L M3 screws. The membrane under testing was clamped between the two PMMA pieces, with 2 O-rings (2418T113, McMaster Carr, Douglasville, Ga.) to avoid solution leakage. The reservoir was capped with a silicone plugs (9277K87, McMaster Carr, Douglasville, Ga.).\nRelease modulation experiments were performed using 300 nm membranes with both poly-Si and SiC deposition. […]\nThe assembled diffusion fixtures were then loaded in a robotic carousel^20, which is connected to a Cary 50 UV-vis spectrophotometer (Agilent Technologies). Absorbance measurements of the sink reservoir were automatically performed every 5 minutes. […]\nGraphs were plotted and statistical data analyses were performed with GraphPad Prism 8 (version 8.1.1; GraphPad Software, Inc., La Jolla, Calif.). […] Statistical significance was determined using paired t-tests. […]"}
{"substance": "Alexa Fluor 647 [AF647]", "values": [{"measurement": "reduction of release rate", "value": 60, "unit": "%"}]}
